From patent publication US20070219254A1, “Therapeutic Compounds: Pyridine N-Oxide Scaffold” (priority 2004, published 2007) come the findings set out here.

Each structure is given as a SMILES string. Read-outs that look alike come from different tables or passages of the source.

Test [1] has as its target T1, Human CB1 receptor (Homo sapiens, UniProt P21554).
T1 construct: purchased Receptor Biology
The test can be described thus: hCB1 GTPγS binding. Conditions: for Emax: maximal stimulation defined by 10 μM Win 55,212-2. It is filed as biochemical. The method, then: Human CB1 receptor from Receptor Biology (hCB1) or human CB2 receptor membranes (BioSignal) are thawed at 37° C., passed 3 times through a 25-gauge blunt-end needle and diluted in the GTPγS binding buffer (50 mM Hepes, 20 mM NaOH, 100 mM NaCl, 1 mM EDTA, 5 mM MgCl2, pH 7.4, 0.1% BSA). The EC50 and Emax of the compounds of the invention are evaluated from 10-point dose-response curves done in 300 μl with the appropriate amount of membrane protein and 100000-130000 dpm of GTPg^35S per well (0.11-0.14 nM). The basal and maximal stimulated binding is determined in absence and presence of 1 μM (hCB2) or 10 μM (hCB1) Win 55,212-2 respectively. The membranes are pre-incubated for 5 minutes with 56.25 μM (hCB2) or 112.5 μM (hCB1) GDP prior to distribution in plates (15 μM (hCB2) or 30 μM (hCB1) GDP final). The plates are vortexed and incubated for 60 minutes at room temperature, filtered on Unifilters GF/B (presoaked in water) with the Tomtec or Packard harvester using 3 ml of wash buffer (50 mM Tris, 5 mM MgCl2, 50 mM NaCl, pH 7.0). The filters are dried for 1 hour at 55° C. The radioactivity (cpm) is counted in a TopCount (Packard) is after adding 65 μl/well of MS-20 scintillation liquid. Antagonist reversal studies are done in the same way except that (a) an agonist dose-response curve is done in the presence of a constant concentration of antagonist, or (b) an antagonist dose-response curve is done in the presence of a constant concentration of agonist.
In general terms: Binding of GTPγS marks nucleotide exchange on a G protein.

Test [2] deals with T1, Human CB1 receptor. The test can be described thus: hCB1 receptor binding (3H-CP55,940 displacement). The method, then:
Human CB1 receptor from Receptor Biology (hCB1) or human CB2 receptor from BioSignal (hCB2) membranes are thawed at 37° C., passed 3 times through a 25-gauge blunt-end needle, diluted in the cannabinoid binding buffer (50 mM Tris, 2.5 mM EDTA, 5 mM MgCl2, and 0.5 mg/mL BSA fatty acid free, pH 7.4) and aliquots containing the appropriate amount of protein are distributed in 96-well plates. The IC50 of the compounds of the invention at hCB1 and hCB2 are evaluated from 10-point dose-response curves done with ^3H-CP55,940 at 20000 to 25000 dpm per well (0.17-0.21 nM) in a final volume of 300 μl. The total and non-specific binding are determined in the absence and presence of 0.2 μM of HU210 respectively. The plates are vortexed and incubated for 60 minutes at room temperature, filtered through Unifilters GF/B (presoaked in 0.1% polyethyleneimine) with the Tomtec or Packard harvester using 3 mL of wash buffer (50 mM Tris, 5 mM MgCl2, 0.5 mg BSA pH 7.0). The filters are dried for 1 hour at 55° C. The radioactivity (cpm) is counted in a TopCount (Packard) after adding 65 μl/well of MS-20 scintillation liquid.
Based on the above assays, the dissociation constant (Ki) for a particular compound of the invention towards a particular receptor is determined using the following equation: […]
Wherein IC50 is the concentration of the compound of the invention at which 50% displacement has been observed;
[rad] is a standard or reference radioactive ligand concentration at that moment; and
Kd is the dissociation constant of the radioactive ligand towards the particular receptor.

Setting [3] is: hCB1 membranes, GTPγ35S, read-out: EC50 (hCB1).
Where [4] appears, read: hCB1 membranes, 3H-CP55,940, Ki=IC50/(1+[rad]/Kd), read-out: Ki (hCB1).

T1 sequence (P21554 whole entry): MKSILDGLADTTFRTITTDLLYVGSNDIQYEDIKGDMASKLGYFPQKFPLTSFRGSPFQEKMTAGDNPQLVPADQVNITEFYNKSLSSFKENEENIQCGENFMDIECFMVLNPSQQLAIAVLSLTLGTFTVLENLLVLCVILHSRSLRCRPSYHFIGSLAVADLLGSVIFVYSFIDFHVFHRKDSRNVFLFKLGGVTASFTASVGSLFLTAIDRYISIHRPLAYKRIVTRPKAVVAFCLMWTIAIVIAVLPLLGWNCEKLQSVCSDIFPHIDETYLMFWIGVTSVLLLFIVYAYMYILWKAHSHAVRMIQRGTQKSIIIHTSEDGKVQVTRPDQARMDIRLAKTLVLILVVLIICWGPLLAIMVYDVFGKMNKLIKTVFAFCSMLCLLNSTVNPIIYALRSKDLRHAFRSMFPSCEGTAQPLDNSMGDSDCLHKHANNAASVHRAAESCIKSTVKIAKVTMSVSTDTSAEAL

On to `Cc1ccc(C(=O)Nc2ccc[n+]([O-])c2C(=O)NCC2CCCCC2)c2ccccc12` [Example 8, N-(Cyclohexylmethyl)-3-[(4-methyl-1-naphthalenylcarbonyl)amino]-1-oxide-2-pyridinecarboxamide], for which the EC50 (commonly the concentration giving half of the maximal effect) in test [1] (setting [3]) came out at 191 nM. The maximal response (Emax) (as a rule, the maximal effect, on the per cent scale that the assay sets) in test [1] (hCB1 membranes) was determined as 122%. For the same molecule, the Ki (as a rule, the equilibrium dissociation constant of an inhibitor or competing ligand from its target) in test [2] (setting [4]) was determined as 42 nM.

The molecule `O=C(Nc1ccc[n+]([O-])c1C(=O)NCC1CCCCC1)c1cccc2ccccc12` [Example 7, N-(Cyclohexylmethyl)-3-[(1-naphthalenylcarbonyl)amino]-1-oxide-2-pyridinecarboxamide] showed an EC50 in test [1] of 506 nM. Further, the Emax in test [1] (hCB1 membranes) stood at 128%. In addition, the affinity in test [2], expressed as Ki, was 47 nM.

Take `Cc1ccc(C(=O)Nc2ccc[n+]([O-])c2C(=O)NCC2CCC2)c2ccccc12` [Example 2, N-(Cyclobutylmethyl)-3-[[(4-methyl-1-naphthalenyl)carbonyl]amino]-1-oxide-2-pyridinecarboxamide]: the EC50 in test [1] (setting [3]) was found to be 167 nM. The same molecule yielded an Emax in test [1] (hCB1 membranes) of 106%. In test [2] (setting [4]), the Ki is 18 nM.
